Entries after “also recorded” stand apart in the source; their conditions may differ.
Experiments:
Histomonas meleagridis [1] = assay: Prophylaxis of histomoniasis in turkey poults inoculated intracloacally, apramycin in feed (Example 1); type: in vivo, turkeys
From the text: The objective of the study was to investigate the activity of apramycin as prophylactic agent against a Histomonas meleagridis strain isolated from an outbreak of histomoniasis in turkeys in Belgium (September 2005). The antibiotic (apramycin) was supplemented through the feed at 550 g of the test product/MT of feed (Ap 550) in the challenged birds. This medicated group was compared with an Infected Untreated Control (IUC) and an Uninfected Untreated Control group (UUC).
Seventy five (75) one day old male animals (turkey poults) were enrolled in the study and randomly allocated to 3 groups of 25 animals per pen. During the whole study (from day 1 to day 38), Treatment 1 (UUC) and 2 (IUC) received standard animal (turkey) feed without supplementation, whereas Treatment 3, received feed supplemented with apramycin sulphate. On day 22, Treatments 2 and 3 were inoculated intracloacally with Histomonas meleagridis. From that day one, the animals were clinically observed on a daily base. At the end of the study, D38, all remaining animals were euthanized and necropsied and lesion scored for caeca and liver.
All animals (turkeys) died during the challenge period were necropsied to determine the cause of death. […] (see Table 1 and FIG. 1).

Histomonas meleagridis [2] = details: cited from earlier work
Histomonas meleagridis [3] = assay: Prophylaxis of histomoniasis in turkey poults inoculated intracloacally, apramycin in feed (Example 1); type: in vivo; details: live weight at the end of the study; 550 g/MT of feed, turkeys
Histomonas meleagridis [4] = details: turkeys; cited from earlier work
[5] = necropsy, 550 g/MT of feed, turkeys
[6] = 300 ppm, inoculated broiler chickens

Compound: CN[C@@H]1[C@@H](O[C@H]2O[C@H](CO)[C@@H](N)[C@H](O)[C@H]2O)OC2C[C@@H](N)[C@@H](O[C@H]3[C@H](O)[C@@H](O)[C@H](N)C[C@@H]3N)OC2[C@@H]1O (stereo partly drawn) [Ap 550, Apramycin]
- Mortality due to histomoniasis (% Cumulative) (Histomonas meleagridis [1]; D 7 PI, 550 g/MT of feed, turkeys): 0.00%
- Mortality due to histomoniasis (% Cumulative) (Histomonas meleagridis [1]; D 8 PI, 550 g/MT of feed, turkeys): 0.00%
- Mortality due to histomoniasis (% Cumulative) (Histomonas meleagridis [1]; D 9 PI, 550 g/MT of feed, turkeys): 0.00%
- Mortality due to histomoniasis (% Cumulative) (Histomonas meleagridis [1]; D 10 PI, 550 g/MT of feed, turkeys): 0.00%
- Mortality due to histomoniasis (% Cumulative) (Histomonas meleagridis [1]; D11 PI, 550 g/MT of feed, turkeys): 0.00%
- Mortality due to histomoniasis (% Cumulative) (Histomonas meleagridis [1]; D 12 PI, 550 g/MT of feed, turkeys): 0.00%
- Mortality due to histomoniasis (% Cumulative) (Histomonas meleagridis [1]; D 13 PI, 550 g/MT of feed, turkeys): 0.00%
- Mortality due to histomoniasis (% Cumulative) (Histomonas meleagridis [1]; D 14 PI, 550 g/MT of feed, turkeys): 0.00%
- Mortality due to histomoniasis (% Cumulative) (Histomonas meleagridis [1]; D 15 PI, 550 g/MT of feed, turkeys): 0.00%
- Mortality due to histomoniasis (% Cumulative) (Histomonas meleagridis [1]; D 16 PI, 550 g/MT of feed, turkeys): 0.00%
- Mortality during the challenge period (in words) (Histomonas meleagridis [1]; inoculated turkeys, apramycin continuously in the feed): significant effect in reducing the mortality; also recorded: not a single animal died
- Mean lesion score at necropsy, Caecum score (Histomonas meleagridis [1]; [5]): 0.45
- Mean lesion score at necropsy, Liver score (Histomonas meleagridis [1]; [5]): 0.00
- Protection against the infection by Histomonas meleagridis (in words) (Histomonas meleagridis [1]; turkeys, 550 g/MT of feed): does provide active protection
- Liver and caecal lesion scores (in words) (Histomonas meleagridis [1]; turkeys, apramycin continuously in the feed): reduced significantly
- In-vivo use against histomoniasis (in words) (Histomonas meleagridis [2]; 300 ppm in broilers): ineffective
- Weight gain (in words) (Histomonas meleagridis [2]; 300 ppm in broilers): no amelioration
- Caecal histomoniasis lesions (in words) (Histomonas meleagridis [2]; [6]): No amelioration
- Liver lesions / liver lesion scores (in words) (Histomonas meleagridis [2]; [6]): some reduction
- Average Weight at D40 (Histomonas meleagridis [3]): 1.40 kg
- Treatment effect on histomoniasis (in words) (Histomonas meleagridis [4]): No significant treatment effect

Source: patent US8299037B2, “Feed or pharmaceutical composition comprising apramycin or an adequate salt thereof” (Poulpharm B.V.B.A., priority 2007, dated 2012)
